Consider 14 compounds from EP0275207A2, “Pharmaceutical and veterinary compositions” (priority 1987, dated 1988).

One data set concerns Trichophyton rubrum. Put plainly: 7 day growth test in phosphate buffered saline solution (ED 50 and ED 90). The following applies: for EDso and ED90 results against T. Rubrum: compared to those obtained using bis THP phosphite and THP sulphate; for Mg. growth (% of control) / Mg. growth dry weight / ED50 / ED90: 7 day test; for ED50 / ED90: ppm (Active Compound). Type of data set: cell-based. An excerpt: The activity of 50% aqueous bis THP phosphite, 50% aqueous mono THP phosphite and 80% aqueous THP sulphate against Trichophyton rubrum were compared in a 7 day test in phosphate buffered saline solution to determine ED 50 and ED 90 values.

In another data set the test system is bacteria. The data set can be described thus: Time-kill test (surviving organisms by plate count) in phosphate buffered saline, bacterial strains. The following applies: within 2 to 6 hours of exposure. In kind it is cell-based. The method, then:
The following bacterial strains were used in the tests: • Streptococcus pyogenes NCTC 8198 • Streptococcus faecalis ATCC 19433 • Sarcina lutea ATCC 9341 • Proteus mirabilis NCTC 8559 • Proteus vulgaris NCTB 4175 • Klebsiella pneumoniae NCTC 10341 • Salmonella typhimurium NCTB 10258 • Salmonella enteritidis NCTC 6676 • Shigella boydii NCTC 9328 • Bacillus subtilus ATCC 6633 • Bacillus cereus ATCC 11778
Inocula for the bacterial strains were prepared from cultures on Tryptone soy agar (TSA, Oxoid CM 131) incubated at 37° C for 24 hours. […]
(§1) The test solutions as described in (5) above were prepared in 50 ml volumes and the test solutions plus a 100 ml volume of PBS (as control) were inoculated with appropriate volumes (0.5 to 1 ml) of the inocula prepared as described in (2) above, shaken to evenly distribute the inoculum and held at room temperature. Immediatedly after inoculation (time 0) and then at pre-determined times 0.1 ml aliquots were removed from the test and control solutions for counting. […]
(§2) Developing colonies were then counted and by reference to the appropriate dilution ratios the numbers of surviving organisms at each compound concentration/time point were calculated.

The subject of the next data set is fungi. The data set can be described thus: Time-kill test (surviving organisms by plate count) in phosphate buffered saline, yeast and fungal strains. The following applies: after 24 hours. Type of data set: cell-based. As for the experimental part:
The following yeast and fungal strains were used in the tests: • Candida albicans ATCC 10231 • Candida tropicalis NCPF 3111 • Absidia corymbifera NCPF 2001 • Sporotrichum schenkii NCPF 3182 • Trichophyton rubrum NCPF 197 • Trichophyton mentagrophytes NCPF 351 • Microsporum Canis NCPF 351 • Penicillium funicolosum CMI 114933 • Aureobasidium pullulans CMI 45533
Inocula for the two yeast (Candida) strains wre prepared from cultures on Sabouraud dextrose agar (SDA Oxide CM 141) incubated at 37°C for 48 hours. Surface growth of the organisms was suspended in sterile physiological saline and standardised by plate counts to contain approximatedly 10^6 cfu/ml. […]
as §1, §2

A further data set has as its system protozoal infection. The data set can be described thus: Treatment of fish pond with an infected Koi Carp. In kind it is in vivo. Particulars: 100 ppm dosed to the pond, concentration of 27 ppm in the pond water. The method, then:
100 ppm of 75% aqueous THP sulphate was dosed to the pond via the oxygenating venturi to provide a concentration of 27 ppm in the pond water.

Another data set deals with Naegleria. Put plainly: In vitro kill of protozoon. Type of data set: cell-based.

Consider THP tartrate, for which the “EDso and ED90 results against T. Rubrum” value in the data set on Trichophyton rubrum is “substantially similar”.

As to THP fluoride, in the data set on Trichophyton rubrum, the “EDso and ED90 results against T. Rubrum” value was “substantially similar”.

In the case of “tetrakis(hydroxymethyl) phosphonium sulphate [80% THP Sulphate]”, the “Mg. growth (% of control)” value in the data set with Trichophyton rubrum (8 ppm (Active Compound)) is recorded as “(92) % of control”; in the data set with Trichophyton rubrum (24 ppm (Active Compound)) it was “(0) % of control”; with Trichophyton rubrum (80 ppm (Active Compound)), “(0) % of control”; with Trichophyton rubrum (240 ppm (Active Compound)) it was “(0) % of control”; in the data set on Trichophyton rubrum (800 ppm (Active Compound)), “(0) % of control”. For the same compound, the “Mg. growth dry weight” value in the data set on Trichophyton rubrum (8 ppm (Active Compound)) came out at 7.3 Mg; in the data set on Trichophyton rubrum (24 ppm (Active Compound)) it was 0 Mg; in the data set with Trichophyton rubrum (80 ppm (Active Compound)), 0 Mg; with Trichophyton rubrum (240 ppm (Active Compound)) it was 0 Mg; in the data set with Trichophyton rubrum (800 ppm (Active Compound)) it was 0 Mg. Moreover, the ED50 with Trichophyton rubrum is reported as 14 ppm. The ED90 in the data set on Trichophyton rubrum was determined as 20 ppm.

In the case of mono THP phosphite [50% THP phosphite], the “Mg. growth (% of control)” value is on record as “(131) % of control” in the data set on Trichophyton rubrum (5 ppm (Active Compound)); “(39) % of control” in the data set with Trichophyton rubrum (15 ppm (Active Compound)); “(44) % of control” in the data set with Trichophyton rubrum (50 ppm (Active Compound)); “(32) % of control” in the data set with Trichophyton rubrum (150 ppm (Active Compound)); “(23) % of control” in the data set on Trichophyton rubrum (500 ppm (Active Compound)). For the same compound, the “Mg. growth dry weight” value was found to be 9.3 Mg in the data set on Trichophyton rubrum (5 ppm (Active Compound)); 2.8 Mg in the data set on Trichophyton rubrum (15 ppm (Active Compound)); 3.1 Mg in the data set with Trichophyton rubrum (50 ppm (Active Compound)); 2.3 Mg with Trichophyton rubrum (150 ppm (Active Compound)); 1.6 Mg with Trichophyton rubrum (500 ppm (Active Compound)). This compound also displayed an ED50 with Trichophyton rubrum of 11 ppm. In the data set with Trichophyton rubrum, this compound displayed an ED90 above 500 ppm.

`OC[P+](CO)(CO)CO` [THP bromide]: the “EDso and ED90 results against T. Rubrum” value with Trichophyton rubrum is listed as “substantially similar”.

As for “tetrakis(hydroxymethyl) phosphonium sulphate”, the “concentration giving a high degree of lethal activity to bacteria” value in the data set on bacteria is “at least 20 ppm”. Further, the “concentration giving a high degree of lethal activity to the fungi” value with fungi was 100-150 ppm. Moreover, in the data set with protozoal infection, the “infection of the other fish” value is given as “none of the other fish became infected”; the “outcome for the infected fish” value is recorded as “recovered fully”; the “tolerability in fish (feeding, distress)” value is recorded as “no signs of distress”.

On to “bis THP phosphite [50% bis THP phosphite]”, for which the “Mg. growth (% of control)” value is listed as “(82) % of control” with Trichophyton rubrum (5 ppm (Active Compound)); “(20) % of control” with Trichophyton rubrum (15 ppm (Active Compound)); “(0) % of control” in the data set with Trichophyton rubrum (50 ppm (Active Compound)); “(0) % of control” with Trichophyton rubrum (150 ppm (Active Compound)); “(0) % of control” in the data set on Trichophyton rubrum (500 ppm (Active Compound)). Further, the “Mg. growth dry weight” value is 8.7 Mg with Trichophyton rubrum (5 ppm (Active Compound)); 2.1 Mg in the data set with Trichophyton rubrum (15 ppm (Active Compound)); 0 Mg with Trichophyton rubrum (50 ppm (Active Compound)); 0 Mg with Trichophyton rubrum (150 ppm (Active Compound)); 0 Mg in the data set with Trichophyton rubrum (500 ppm (Active Compound)). For the same compound, in the data set on Trichophyton rubrum, the ED50 is recorded as 10 ppm. Besides, the ED90 in the data set on Trichophyton rubrum is reported as 25 ppm.

Take “tetrakis(hydroxymethyl) phosphonium sulphate [THPS]”: the “concentration giving a complete in vitro kill of Naegleria” value in the data set with Naegleria amounted to 15 ppm.

As for `OC[P+](CO)(CO)CO.[Cl-]` [THP chloride, tetrakis (hydroxymethyl) phosphonium chloride], in the data set with Trichophyton rubrum, the “EDso and ED90 results against T. Rubrum” value is given as “substantially similar”.

Turning to THP lactate, the “EDso and ED90 results against T. Rubrum” value in the data set on Trichophyton rubrum is “substantially similar”.

For the compound THP borate, in the data set with Trichophyton rubrum, the “EDso and ED90 results against T. Rubrum” value was “substantially similar”.

THP citrate: the “EDso and ED90 results against T. Rubrum” value with Trichophyton rubrum is reported as “substantially similar”.

As to THP acetate, the “EDso and ED90 results against T. Rubrum” value in the data set on Trichophyton rubrum was “substantially similar”.

As for bis THP phosphate, in the data set on Trichophyton rubrum, the “EDso and ED90 results against T. Rubrum” value is “substantially similar”.
